Reference: paper PMC4105567, “Aurora Kinases as Druggable Targets in Pediatric Leukemia: Heterogeneity in Target Modulation Activities and Cytotoxicity by Diverse Novel Therapeutic Agents” (PLoS ONE, 2014)
Where two headings read alike, the source gives them in different places.

Columns and labels:
SEM B-ALL cell line = assay: Cytotoxicity assay, SEM; type: cell-based; details: Homo sapiens, 96 h, four days in culture, Alamar blue assay or automated microscopy, ± SD, three experiments
Method: (§1) Cell lines were cultured in Opti-MEM medium (Gibco, Life Technologies Corporation, Burlington, Ontario) supplemented with 10% heat inactivated fetal bovine serum (FBS) (Gibco), 100 units/ml penicillin and 100 units/ml streptomycin (Gibco) and 0.05 mM 2-mercaptoethanol (Sigma-Aldrich, Oakville, Ontario) in T25 flasks (Nalge Nunc, Rochester, New York) or T75 flasks (Corning Incorporated, Corning, New York). All cell cultures were maintained at 37°C in a humidified incubator with 5% CO2.
(§2) For cytotoxicity profiling of Aurora kinase inhibitors against leukemia cell lines, inhibitors or vehicle control (DMSO, Sigma-Aldrich) were diluted in 100 µl of Opti-MEM per well in 96 well plates (Grenier Bio-One, Monroe, North Carolina) in triplicate at final concentrations ranging from 1×10^−6 to 10 µM. 1×10^4 cells per well were seeded and plates were incubated for 4 days. Following incubation for 4 days, cell survival was quantified by Alamar blue assay (Invitrogen) or automated inverted microscopy using the Celigo Cell Cytometer (Cyntellect, San Diego, California). […] During this period of incubation, the absorbance at 570–620 nm was measured (Opsys MR Plate Reader, Dynex Technologies, Chantilly, Virginia) at various time points, depending on the cell line or sample. Percent survival was calculated by comparing the absorbance ratio of the test well to the control well multiplied by 100%, as indicated in the following formula: […]
(§3) For automated inverted microscopy, the number of cells in each well was determined using the direct cell counting application as described previously. Briefly, following adjustment of image acquisition settings for bright-field imaging, the wells containing cells and appropriate dilutions of inhibitors were individually scanned. Based on these images, analysis parameters, including intensity threshold and cell diameter, were modified for optimal inclusion of viable cells in treated and control wells. These parameters were applied for subsequent replicates involving the same leukemia cell line or sample. The percent survival was then calculated as a ratio of the number of cells in treated wells to the number of cells in control wells multiplied by 100%. Given that Aurora kinase inhibitors interfere with cytokinesis, cells that are committed to death may still contain enlarging but intact cytoplasmic content before the eventual loss of cytoplasmic membrane integrity. The accuracy of Alamar blue assay may be, in theory, affected by the timing of these events.

Molt-3 T-ALL cell line = assay: Cytotoxicity assay, Molt-3; type: cell-based, human; details: Homo sapiens, 96 h; T-ALL cell line Molt-3; four days in culture; Alamar blue assay or automated microscopy; ± SD, three experiments
Method: as §1, §2, §3

Aurora-C = details: read-out: Targets (IC50 Value): Aurora-C; literature values; ref [10],[40],[44]–[64] as listed per inhibitor in Table 1; cited from earlier work
[1] = test system: Patient #5 ALL/AML primary leukemia cells; assay: Cytotoxicity assay, primary sample Patient #5; type: cell-based, human; details: Homo sapiens, 96 h, read-out: IC50, Patient #5 ALL/AML
Method: (§4) These include B-ALL (Patient #1), relapsed AML (Patient #2), AML/CML (Patient #3), infant ALL (Patient #4), and initial ALL presenting with secondary AML (Patient #5). […] The diluted sample was then layered on a Ficoll-Paque (GE Healthcare, Piscataway, New Jersey) gradient at a 1∶2 ratio of Ficoll to diluted sample. Samples were then centrifuged 1800 rpm for 20 minutes at room temperature. The buffy coat was removed with a pipette and transferred to a new centrifuge tube and diluted with PBS. After an additional centrifugation at 1200 rpm, the white blood cell pellet was washed with PBS and centrifuged one last time. Cells were re-suspended in Opti-MEM and viable cells were counted using trypan blue (Invitrogen, Life Technologies Corporation, Burlington, Ontario) exclusion on a haemocytometer. An identical protocol was followed for the isolation of white blood cells, referred to as “normal lymphocytes” in the following paragraphs, from healthy volunteers. Samples grown in culture for up to six months were cultured in Opti-MEM medium supplemented with 10% heat inactivated FBS, penicillin/streptomycin and 2-mercaptoethanol.
as §2, §3

MV4-11 AML cell line = assay: Cytotoxicity assay, MV4-11; type: cell-based, human; details: Homo sapiens, 96 h; AML cell line MV4-11; four days in culture; Alamar blue assay or automated microscopy; ± SD, three experiments
Method: as §1, §2, §3

[2] = test system: Patient #2 relapsed AML primary leukemia cells; assay: Cytotoxicity assay, primary sample Patient #2; type: cell-based, human; details: Homo sapiens, 96 h, four days in culture, Alamar blue assay or automated microscopy, one complete study
Method: as §4, §2, §3

[3] = test system: Patient #3 AML/CML primary leukemia cells; assay: Cytotoxicity assay, primary sample Patient #3; type: cell-based, human; details: Homo sapiens, 96 h, four days in culture, Alamar blue assay or automated microscopy, one complete study
Method: as §4, §2, §3

Normal Lymphocytes = assay: Cytotoxicity assay, normal lymphocytes; type: cell-based, human; details: Homo sapiens, Lymphocyte, 96 h; normal lymphocytes (control for non-leukemia cytotoxicity); four days in culture; ± SD, three experiments
Method: as §4, §2, §3

UOCB1 B-ALL cell line = assay: Cytotoxicity assay, UOCB1; type: cell-based, human; details: Homo sapiens, UoC-B1, 96 h, four days in culture, Alamar blue assay or automated microscopy, ± SD, three experiments
Method: as §1, §2, §3

Aurora-B = test system: Aurora-B; design: method as in earlier work; details: literature values; ref [10],[22],[27],[40],[44]–[64] as listed per inhibitor in Table 1; read-out: Targets (IC50 Value): Aurora-B; cited from earlier work
[4] = test system: Patient #1 B-ALL primary leukemia cells; assay: Cytotoxicity assay, primary sample Patient #1; type: cell-based, human; details: Homo sapiens, 96 h, four days in culture, Alamar blue assay or automated microscopy, one complete study
Method: as §4, §2, §3

[5] = test system: Patient #4 infant leukemia primary cells; assay: Cytotoxicity assay, primary sample Patient #4; type: cell-based, human; details: Homo sapiens, 96 h, four days in culture, Alamar blue assay or automated microscopy, one complete study
Method: as §4, §2, §3

KOPN8 B-ALL cell line = assay: Cytotoxicity assay, KOPN8; type: cell-based, human; details: Homo sapiens, KOPN-8, 96 h, four days in culture, Alamar blue assay or automated microscopy, ± SD, three experiments
Method: as §1, §2, §3

TIB-202 AML cell line = assay: Cytotoxicity assay, TIB-202; type: cell-based, human; details: Homo sapiens, 96 h; AML cell line TIB-202; four days in culture; Alamar blue assay or automated microscopy; ± SD, three experiments
Method: as §1, §2, §3

HL-60 RA APML cell line = assay: Cytotoxicity assay, HL-60 RA; type: cell-based, human; details: Homo sapiens, 96 h; APML cell line HL-60 RA; four days in culture; Alamar blue assay or automated microscopy; ± SD, three experiments
Method: as §1, §2, §3

Nalm6 B-ALL cell line = assay: Cytotoxicity assay, Nalm6; type: cell-based, human; details: Homo sapiens, NALM-6, 96 h, four days in culture, Alamar blue assay or automated microscopy, ± SD, three experiments
Method: as §1, §2, §3

CEM T-ALL cell line = assay: Cytotoxicity assay, CEM; type: cell-based, human; details: Homo sapiens, 96 h, four days in culture, Alamar blue assay or automated microscopy, ± SD, three experiments
Method: as §1, §2, §3

Bone Marrow Stroma = assay: Cytotoxicity assay, bone marrow stroma; type: cell-based, human; details: Homo sapiens, 96 h; bone marrow stroma (control for non-leukemia cytotoxicity); four days in culture; ± SD, three experiments
Method: as §2, §3

B1 B-ALL cell line = assay: Cytotoxicity assay, B1; type: cell-based, human; details: Homo sapiens, 96 h, four days in culture, Alamar blue assay or automated microscopy, ± SD, three experiments
Method: as §1, §2, §3

Molm13 AML cell line = assay: Cytotoxicity assay, Molm13; type: cell-based, human; details: Homo sapiens, MOLM-13, 96 h, four days in culture, Alamar blue assay or automated microscopy, ± SD, three experiments
Method: as §1, §2, §3

[6] = test system: normal cells versus leukemia cell lines; assay: Comparison of cytotoxicity IC50 values, normal cells versus leukemia cell lines; type: cell-based, human; details: normal lymphocytes and bone marrow stroma versus leukemia cell lines of Table 2
Method: as §2, §3

NB4 APML cell line = assay: Cytotoxicity assay, NB4; type: cell-based, human; details: Homo sapiens, 96 h, four days in culture, Alamar blue assay or automated microscopy, ± SD, three experiments
Method: as §1, §2, §3

C1 B-ALL cell line = assay: Cytotoxicity assay, C1; type: cell-based, human; details: Homo sapiens, 96 h, four days in culture, Alamar blue assay or automated microscopy, ± SD, three experiments
Method: as §1, §2, §3

HL-60 APML cell line = assay: Cytotoxicity assay, HL-60; type: cell-based, human; details: Homo sapiens, 96 h; APML cell line HL-60; four days in culture; Alamar blue assay or automated microscopy; ± SD, three experiments
Method: as §1, §2, §3

Row | Structure (SMILES) | IC50 (SEM B-ALL cell line) [nM] | IC50 (Molt-3 T-ALL cell line) [nM] | IC50 (Aurora-C) [nM] | IC50 (MV4-11 AML cell line) [nM] | IC50 [2] [nM] | IC50 [3] [nM] | IC50 (Normal Lymphocytes) [nM] | IC50 (UOCB1 B-ALL cell line) [nM] | IC50 [4] [nM] | IC50 [5] [nM] | IC50 (KOPN8 B-ALL cell line) [nM] | IC50 (TIB-202 AML cell line) [nM] | IC50 (HL-60 RA APML cell line) [nM] | IC50 (Nalm6 B-ALL cell line) [nM] | IC50 (CEM T-ALL cell line) [nM] | IC50 (Bone Marrow Stroma) [nM] | IC50 (B1 B-ALL cell line) [nM] | IC50 (Molm13 AML cell line) [nM] | IC50 values for the normal cells compared with IC50 values for the leukemia cell lines (potential therapeutic window) [6] | IC50 (NB4 APML cell line) [nM] | other results
1 | CCc1cccc(CC)c1NC(=O)N1Cc2n[nH]c(NC(=O)c3ccc(N4CCN(C)CC4)cc3)c2C1 [PHA-680632] | 800 ± 300 | 100 ± 60 | 120 | 300 ± 200 | 2000 | > 10000 | > 10000 | 1000 ± 500 | 10 | > 10000 | 60 ± 20 | 6000 ± 1000 | 90 ± 10 | 400 ± 200 | 300 ± 100 | 2000 ± 900 | 5000 ± 900 | 30 ± 20 | lower than the IC50 values for the normal cells, but not as pronounced | 900 ± 90 | IC50 [1]: 0.8 nM; IC50 (Aurora-B): 135 nM; IC50 (C1 B-ALL cell line): 100 ± 50 nM; IC50 (HL-60 APML cell line): 6000 ± 2000 nM
2 | CO[C@@H](C(=O)N1Cc2n[nH]c(NC(=O)c3ccc(N4CCN(C)CC4)cc3)c2C1)c1ccccc1 [PHA-739358] | 80 ± 20 | 4 ± 2 | 61 | 3 ± 2 | 300 | > 10000 | > 10000 | 60 ± 20 | 0.9 | > 10000 | 2 ± 1 | 2000 ± 900 | 7 ± 1 | 9 ± 0.9 | 10 ± 6 | 3000 ± 1000 | 2000 ± 900 | 6 ± 1 | lower than the IC50 values for the normal cells, but not as pronounced | 200 ± 100 | IC50 ([1]; primary sample, four days in culture, Alamar blue assay or automated microscopy, one complete study): 1 nM; IC50 (C1 B-ALL cell line): 8 ± 1 nM; IC50 (HL-60 APML cell line): 900 ± 100 nM
